Measurements published in patent publication US5378846A, “1,2,3,4-tetrahydropyrrolo-[1,2-a]-pyrazine derivatives” (Russian-American Institute For New Drug Development, priority 1993, dated 1995).
“Also recorded” adds a separate entry of the source.

Columns and labels:
C57 B1/6 mice = test: Open field test, C57 B1/6 mice; assay type: in vivo, male C57 B1/6 mice; conditions: for Central activity / Crosses of Squires / Emotionality (N. of defec.) / Total locomotor activity / Vert. stands: C57 B1/6, i.p.
Method: ESR indices were evaluated as changes in mice ambulations, defecations and motor activity in an "open field" test ([…]., Bull. Exp. Biol. […] Compound 1 was injected in different doses intraperitoneally 45 min. before test.

[1] = test system: aggressive behavior in mice; test: Antiaggressive activity (threshold of aggressive behavior, electrified floor); assay type: in vivo, outbred male mice
Method: (§1) Compounds according to the present invention were checked for their influence on gross behaviour. The experiments described herein (Examples 11, 12, 13, 14, and 15) were carried out using outbred male mice weighing approximately 18-24 g. Each substance was administered intraperitoneally 45 min. before the experiment. Locomotor activity was estimated individually for each animal for 3 min. using an actometer `Era-1` (Russia).
The effect of Compound 1 on the threshold of the aggressive behavior was determined in the experiment on outbred mice (R. Tedesci et al., J. Pharmacol. Exp. Ther., 125, 28-34, (1959), which is incorporated herein by reference). The paired mice were placed on the electrified floor. The strength of the current, which provoked the fighting, was recorded.

[2] = test system: locomotor activity in mice; test: Locomotor activity in mice (actometer); assay type: in vivo, outbred male mice; conditions: for The number of movements for 3 min., horizontal activity / The number of movements for 3 min., vertical activity: i.p.
Method: as §1

O=C(O)CCC(=O)O.c1cc2n(c1)CCNC2 [Compound 1, 1,2,3,4-tetrahydropyrrolo-[1,2-a]-pyrazine hydrosuccinate]
Open field behavior of C57 B1/6 mice, in words (C57 B1/6 mice; 5 mg/kg i.p.): caused the reduction of total ambulations inhibiting central and vertical activity. The number of defecations was not changed | Central activity (C57 B1/6 mice; 0.1 mg/kg): 24.2 ± 5.2 | Crosses of Squires (C57 B1/6 mice; 0.1 mg/kg): 74.6 ± 7.6 | Emotionality (N. of defec.) (C57 B1/6 mice; 0.1 mg/kg): 1.0 ± 0.53 | Total locomotor activity (C57 B1/6 mice; 0.1 mg/kg): 114.6 ± 12.1 | Vert. stands (C57 B1/6 mice; 0.1 mg/kg): 15.8 ± 2.5 | Central activity (C57 B1/6 mice; 1.0 mg/kg): 29.9 ± 5.2 | Crosses of Squires (C57 B1/6 mice; 1.0 mg/kg): 65.6 ± 5.5 | Emotionality (N. of defec.) (C57 B1/6 mice; 1.0 mg/kg): 0.8 ± 0.39 | Total locomotor activity (C57 B1/6 mice; 1.0 mg/kg): 110.6 ± 10.9 | Vert. stands (C57 B1/6 mice; 1.0 mg/kg): 15.1 ± 2.0 | Central activity (C57 B1/6 mice; 5.0 mg/kg): 11.1 ± 1.6 | Crosses of Squires (C57 B1/6 mice; 5.0 mg/kg): 51.7 ± 5.3 | Emotionality (N. of defec.) (C57 B1/6 mice; 5.0 mg/kg): 0.22 ± 0.22 | Total locomotor activity (C57 B1/6 mice; 5.0 mg/kg): 71.7 ± 6.9 | Vert. stands (C57 B1/6 mice; 5.0 mg/kg): 7.8 ± 1.5 | Sedation in C57B1/6 mice, in words (C57 B1/6 mice; anxiolytic dose range, open field test): does not cause sedation in C57B1/6 mice; also recorded: anxiolytic effect in BALB/c mice does not coincide with sedative effect in C57B 1/6 mice | Effect on threshold of aggressive response, in words [1]: increase the threshold of aggressive response; also recorded: able to enhance the threshold of aggressive response | Aggression threshold ([1]; 0.5 mg/kg i.p.): 67.2 ± 1.7 V | Aggression threshold ([1]; 5.0 mg/kg i.p.): 90.8 ± 4.9 V | Influence on spontaneous motor activity, in words ([2]; 0.1-0.3 mg/kg i.p.): neither stimulated nor depressed the spontaneous motor activity | The number of movements for 3 min., horizontal activity ([2]; 0.1 mg/kg): 650.8 ± 12.5 | The number of movements for 3 min., vertical activity ([2]; 0.1 mg/kg): 24.7 ± 2.5 | The number of movements for 3 min., horizontal activity ([2]; 0.3 mg/kg): 657.7 ± 15.5 | The number of movements for 3 min., vertical activity ([2]; 0.3 mg/kg): 25.2 ± 4.1
